Measurements reported in ChEMBL document CHEMBL5154769, “Discovery of the First-in-Class Agonist-Based SOS1 PROTACs Effective in Human Cancer Cells Harboring Various KRAS Mutations” (J Med Chem, 2022).
pIC50, pKd: −log10 of the molar value. Activity calls are given as the source filed them. The rule behind the calls is not given here.

Tests used:
[1] = molecular target: T1, von Hippel-Lindau disease tumor suppressor/Son of sevenless homolog 2 (Homo sapiens) (UniProt P40337+Q07890); experiment: Protac activity at VHL/SOS2 in human NCI-H358 cells assessed as SOS2 protein degradation at 9.8 to 2500 nM incubated for 24 hr by Western blot analysis; assay type: cell-based; conditions: dose 9.8-2500 nM, DDE = dose-dependent effect
[2] = molecular target: von Hippel-Lindau disease tumor suppressor/Son of sevenless homolog 1/GTPase KRas (Homo sapiens) (UniProt Q07889+P01116+P40337); experiment: Protac activity at SOS1/KRAS E3 ligase in human NCI-H358 cells assessed as KRAS protein level at 2.5 uM measured after 24 hr by […] analysis; assay type: cell-based
[3] = molecular target: T2, von Hippel-Lindau disease tumor suppressor/Son of sevenless homolog 1 (Homo sapiens, UniProt Q07889+P40337); experiment: Protac activity at VHL/SOS1 in human NCI-H358 cells assessed as SOS1 protein degradation at 0.1 uM incubated for 24 hr by Western blot analysis relative to control; assay type: cell-based
Target sequence in this assay (P40337 whole entry, looked up): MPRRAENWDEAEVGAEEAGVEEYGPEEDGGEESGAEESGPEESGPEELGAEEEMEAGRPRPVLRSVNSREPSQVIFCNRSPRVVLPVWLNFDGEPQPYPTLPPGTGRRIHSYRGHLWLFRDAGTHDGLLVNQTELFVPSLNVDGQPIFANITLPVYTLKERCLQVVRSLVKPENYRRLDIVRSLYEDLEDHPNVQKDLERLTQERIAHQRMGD
Target sequence in this assay (Q07889 whole entry, looked up): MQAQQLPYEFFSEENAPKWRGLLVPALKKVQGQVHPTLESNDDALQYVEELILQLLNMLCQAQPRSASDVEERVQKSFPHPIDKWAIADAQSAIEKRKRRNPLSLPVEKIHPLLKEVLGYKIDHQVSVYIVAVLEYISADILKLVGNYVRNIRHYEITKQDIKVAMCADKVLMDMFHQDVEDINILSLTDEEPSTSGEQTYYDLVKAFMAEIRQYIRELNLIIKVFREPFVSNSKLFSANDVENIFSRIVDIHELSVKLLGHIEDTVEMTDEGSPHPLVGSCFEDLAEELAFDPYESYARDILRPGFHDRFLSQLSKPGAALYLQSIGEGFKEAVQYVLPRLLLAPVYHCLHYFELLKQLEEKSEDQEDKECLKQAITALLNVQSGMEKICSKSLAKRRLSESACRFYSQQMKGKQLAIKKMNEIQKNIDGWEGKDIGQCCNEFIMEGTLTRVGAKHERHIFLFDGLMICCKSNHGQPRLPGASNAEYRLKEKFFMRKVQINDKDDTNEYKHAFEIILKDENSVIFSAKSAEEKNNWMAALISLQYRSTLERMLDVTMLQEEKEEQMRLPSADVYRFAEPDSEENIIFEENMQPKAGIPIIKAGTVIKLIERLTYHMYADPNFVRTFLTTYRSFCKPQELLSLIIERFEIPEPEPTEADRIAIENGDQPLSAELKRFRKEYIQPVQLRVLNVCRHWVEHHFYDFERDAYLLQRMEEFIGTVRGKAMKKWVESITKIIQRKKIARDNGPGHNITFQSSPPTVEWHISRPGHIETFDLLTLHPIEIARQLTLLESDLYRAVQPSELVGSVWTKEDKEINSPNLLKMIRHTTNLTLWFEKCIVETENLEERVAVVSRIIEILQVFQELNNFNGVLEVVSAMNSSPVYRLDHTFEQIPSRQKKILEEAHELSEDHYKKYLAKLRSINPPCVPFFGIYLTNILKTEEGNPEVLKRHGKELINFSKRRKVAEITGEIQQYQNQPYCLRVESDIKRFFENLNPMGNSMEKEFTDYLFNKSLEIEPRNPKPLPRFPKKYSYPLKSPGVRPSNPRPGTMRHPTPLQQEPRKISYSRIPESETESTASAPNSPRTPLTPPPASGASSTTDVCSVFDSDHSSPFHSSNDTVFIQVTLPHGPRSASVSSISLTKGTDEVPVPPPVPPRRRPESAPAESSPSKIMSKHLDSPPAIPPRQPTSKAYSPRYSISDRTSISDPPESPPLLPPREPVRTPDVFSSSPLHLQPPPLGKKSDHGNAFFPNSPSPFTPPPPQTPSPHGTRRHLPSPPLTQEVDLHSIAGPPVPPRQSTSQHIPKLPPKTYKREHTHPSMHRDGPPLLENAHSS

[4] = molecular target: T2, von Hippel-Lindau disease tumor suppressor/Son of sevenless homolog 1; experiment: Protac activity at VHL/SOS1 in human NCI-H358 cells assessed as SOS1 protein degradation at 1 uM incubated for 24 hr by Western blot analysis relative to control; assay type: cell-based
Target sequence in this assay (P40337 whole entry, looked up): as the sequence (P40337 whole entry, looked up) above
Target sequence in this assay (Q07889 whole entry, looked up): as the sequence (Q07889 whole entry, looked up) above

[5] = molecular target: T2, von Hippel-Lindau disease tumor suppressor/Son of sevenless homolog 1; experiment: Protac activity at VHL/SOS1 in human NCI-H358 cells assessed as SOS1 protein degradation incubated for 24 hr by Western blot analysis; assay type: cell-based
[6] = molecular target: T2, von Hippel-Lindau disease tumor suppressor/Son of sevenless homolog 1; experiment: Protac activity at VHL/SOS1 in human NCI-H358 cells assessed as SOS1 protein degradation at 1 uM and measured after 4 to 24 hr by western blot analysis; assay type: cell-based; conditions: time 4-24 hrs
Target sequence in this assay (P40337 whole entry, looked up): as the sequence (P40337 whole entry, looked up) above
Target sequence in this assay (Q07889 whole entry, looked up): as the sequence (Q07889 whole entry, looked up) above

[7] = molecular target: T2, von Hippel-Lindau disease tumor suppressor/Son of sevenless homolog 1; experiment: Protac activity at VHL/SOS1 in human ASPC1 cells assessed as SOS1 protein degradation at 1 uM incubated measured after 16 hr by western blot analysis; assay type: cell-based
Target sequence in this assay (P40337 whole entry, looked up): as the sequence (P40337 whole entry, looked up) above
Target sequence in this assay (Q07889 whole entry, looked up): as the sequence (Q07889 whole entry, looked up) above

[8] = test system: Mus musculus; experiment: In vivo inhibition of phosphorylated ERK level in BALB/c nude mouse xenografted with human NCI-H358 cells at 20 to 50 mg/kg, IT incubated for 21 days by immunohistochemistry analysis; assay type: functional, organism-based; conditions: dose 20-50 mg/kg, time 21.0 day
[9] = organism: Homo sapiens; experiment: Binding affinity to SOS1/VCB E3 ligase (unknown origin) assessed as ternary complex formation by measuring hook effect incubated for 1 hr by HTRF assay
[10] = molecular target: Von Hippel-Lindau disease tumor suppressor/Elongin B/Elongin C (Homo sapiens, UniProt P40337); experiment: Binding affinity to VCB E3 ligase (unknown origin) assessed as binary equilibrium dissociation constant by surface plasmon resonance analysis; assay type: protein-complex assay
[11] = organism: Homo sapiens; experiment: Co-operativity factor, Ratio of Kd for Binding affinity to VCB E3 ligase (unknown origin) assessed as binary equilibrium dissociation constant to Kd for binding affinity to SOS1/VCB E3 ligase (unknown origin) assessed as ternary dissociation constant
[12] = molecular target: T1, von Hippel-Lindau disease tumor suppressor/Son of sevenless homolog 2 (Homo sapiens); experiment: Protac activity at VHL/SOS2 in human NCI-H358 cells assessed as SOS2 mRNA level at 1 uM incubated for 24 to 72 hr by qRT PCR analysis; assay type: cell-based; conditions: time 24-72 hrs
[13] = test system: MIA PaCa-2; experiment: Antiproliferative activity against human MIA PaCa-2 cells harboring KRAS G12C mutant assessed as cell growth inhibition incubated for 7 days by CellTiter-Glo 3D cell viability assay; assay type: functional, cell-based; conditions: MIA PaCa-2, 168 h
[14] = test system: ASPC1; experiment: Antiproliferative activity against human ASPC1 cells harboring KRAS G12D mutant assessed as cell growth inhibition incubated for 7 days by CellTiter-Glo 3D cell viability assay; assay type: functional, cell-based; conditions: ASPC1, 168 h
[15] = molecular target: von Hippel-Lindau disease tumor suppressor/Son of sevenless homolog 1 (Homo sapiens, UniProt Q07889+P40337, G12C); experiment: Protac activity at VHL/SOS1 in human NCI-H358 cells harboring KRAS G12C mutant assessed as SOS1 protein degradation incubated for 24 hr by Western blot analysis; assay type: cell-based
[16] = molecular target: T3, von Hippel-Lindau disease tumor suppressor/Son of sevenless homolog 1 (Homo sapiens, UniProt Q07889+P40337, G12D); experiment: Protac activity at VHL/SOS1 in human ASPC1 cells harboring KRAS G12D mutant assessed as SOS1 protein degradation incubated for 24 hr by Western blot analysis; assay type: cell-based
[17] = molecular target: T3, von Hippel-Lindau disease tumor suppressor/Son of sevenless homolog 1; experiment: Protac activity at VHL/SOS1 in human SK-LU-1 cells harboring KRAS G12D mutant assessed as SOS1 protein degradation incubated for 24 hr by Western blot analysis; assay type: cell-based
[18] = molecular target: von Hippel-Lindau disease tumor suppressor/Son of sevenless homolog 1 (Homo sapiens, UniProt Q07889+P40337, G12V); experiment: Protac activity at VHL/SOS1 in human SW-620 cells harboring KRAS G12V mutant assessed as SOS1 protein degradation incubated for 24 hr by Western blot analysis; assay type: cell-based
[19] = molecular target: T2, von Hippel-Lindau disease tumor suppressor/Son of sevenless homolog 1; experiment: Protac activity at VHL/SOS1 in human A549 cells harboring KRAS […] mutant assessed as SOS1 protein degradation incubated for 24 hr by Western blot analysis; assay type: cell-based
[20] = molecular target: von Hippel-Lindau disease tumor suppressor/Son of sevenless homolog 1 (Homo sapiens, UniProt Q07889+P40337, G12R); experiment: Protac activity at VHL/SOS1 in human CAL-62 cells harboring KRAS G12R mutant assessed as SOS1 protein degradation incubated for 24 hr by Western blot analysis; assay type: cell-based
[21] = test system: HEK-293T; experiment: Cytotoxicity against human HEK-293T cells assessed as cell growth inhibition incubated for 7 days by CellTiter-Glo 3D cell viability assay; assay type: toxicity, cell-based; conditions: 168 h, time 7 day
[22] = test system: NCI-H358; experiment: Effect of compound on human NCI-H358 cells assessed as decrease in phophorylated ERK level at 1 uM and measured after 6 to 24 hr by Western blot analysis; assay type: functional, cell-based; conditions: time 6-24 hrs
[23] = test system: NCI-H358; experiment: Effect of compound on human NCI-H358 cells stimulated with EGF assessed as decrease in KRAS-GTP level incubated for 24 hr by RAS-G-LISA assay; assay type: functional, cell-based
[24] = Tmax in BALB/c mouse at 10 mg/kg, ip measured after 24 hrs by LC-MS/MS analysis; assay type: ADME, organism-based; conditions: in vivo
[25] = AUClast in BALB/c mouse at 10 mg/kg, ip measured after 24 hrs by LC-MS/MS analysis; assay type: ADME, organism-based; set-up: dose 10 mg/kg, time 24 hrs, route ip; conditions: in vivo
[26] = Observed MRT (infinity) in BALB/c mouse at 10 mg/kg, ip measured after 24 hrs by LC-MS/MS analysis; assay type: ADME, organism-based; conditions: in vivo
[27] = Acute toxicity in BALB/c mouse assessed as change in body weight at 20 mg/kg, ip once daily for 7 days; assay type: organism-based; conditions: in vivo, 168 h, time 7 day
[28] = test system: NCI-H358; experiment: Antitumor activity against human NCI-H358 cells xenografted in BALB/c nude mouse assessed as tumor growth inhibition at 20 mg/kg/day, ip incubated for 21 days; assay type: functional; conditions: NCI-H358, 504 h, time 21 day, read-out: TGI
[29] = Toxicity in BALB/c nude mouse xenografted with human NCI-H358 cells assessed as effect on body weight at 20 to 50 mg/kg, IT twice weekly for 5 weeks; assay type: organism-based; conditions: in vivo, other, 840 h, dose 20-50 mg/kg
[30] = molecular target: T1, von Hippel-Lindau disease tumor suppressor/Son of sevenless homolog 2 (Homo sapiens); experiment: Protac activity at VHL/SOS2 in human ASPC1 cells assessed as SOS2 mRNA level at 1 uM incubated for 24 to 72 hr by qRT PCR analysis; assay type: cell-based; conditions: time 24-72 hrs

T1 sequence (P40337 whole entry, looked up): as the sequence (P40337 whole entry, looked up) above
T1 sequence (Q07890 whole entry, looked up): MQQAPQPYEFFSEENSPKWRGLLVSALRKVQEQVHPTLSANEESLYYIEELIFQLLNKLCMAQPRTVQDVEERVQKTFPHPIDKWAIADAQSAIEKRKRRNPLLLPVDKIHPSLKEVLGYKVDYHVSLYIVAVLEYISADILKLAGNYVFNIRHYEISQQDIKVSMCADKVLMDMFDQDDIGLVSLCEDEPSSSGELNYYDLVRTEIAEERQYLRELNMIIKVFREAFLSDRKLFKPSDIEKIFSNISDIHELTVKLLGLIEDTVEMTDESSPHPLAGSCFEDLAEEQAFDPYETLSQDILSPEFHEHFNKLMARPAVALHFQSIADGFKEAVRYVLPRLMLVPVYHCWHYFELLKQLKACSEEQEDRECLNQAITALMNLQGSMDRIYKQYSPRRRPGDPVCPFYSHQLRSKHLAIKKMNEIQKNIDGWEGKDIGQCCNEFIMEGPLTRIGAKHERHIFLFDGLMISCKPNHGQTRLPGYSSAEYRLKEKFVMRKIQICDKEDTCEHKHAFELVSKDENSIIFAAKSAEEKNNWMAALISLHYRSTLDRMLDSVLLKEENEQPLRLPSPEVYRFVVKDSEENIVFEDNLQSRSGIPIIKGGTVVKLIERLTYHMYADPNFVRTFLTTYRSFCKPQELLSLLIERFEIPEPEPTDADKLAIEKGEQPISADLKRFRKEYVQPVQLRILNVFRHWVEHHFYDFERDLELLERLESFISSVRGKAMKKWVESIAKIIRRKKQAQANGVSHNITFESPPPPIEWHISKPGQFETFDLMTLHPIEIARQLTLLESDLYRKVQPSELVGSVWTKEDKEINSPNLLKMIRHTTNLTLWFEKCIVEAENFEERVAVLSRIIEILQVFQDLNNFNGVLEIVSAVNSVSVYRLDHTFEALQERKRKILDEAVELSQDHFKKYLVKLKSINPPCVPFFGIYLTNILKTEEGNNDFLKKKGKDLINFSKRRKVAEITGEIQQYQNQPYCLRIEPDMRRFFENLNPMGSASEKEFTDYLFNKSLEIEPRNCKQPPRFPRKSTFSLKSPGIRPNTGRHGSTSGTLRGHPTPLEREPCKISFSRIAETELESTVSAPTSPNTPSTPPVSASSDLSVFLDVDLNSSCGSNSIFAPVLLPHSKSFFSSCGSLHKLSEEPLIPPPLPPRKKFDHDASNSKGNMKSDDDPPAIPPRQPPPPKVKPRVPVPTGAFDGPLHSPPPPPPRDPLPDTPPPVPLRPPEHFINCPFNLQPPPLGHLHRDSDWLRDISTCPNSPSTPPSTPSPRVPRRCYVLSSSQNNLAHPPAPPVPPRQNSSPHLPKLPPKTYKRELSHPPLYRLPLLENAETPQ
T3 sequence (P40337 whole entry, looked up, stated change not applied): as the sequence (P40337 whole entry, looked up) above
T3 sequence (Q07889 whole entry, looked up, stated change not applied): as the sequence (Q07889 whole entry, looked up) above
Von Hippel-Lindau disease tumor suppressor/Elongin B/Elongin C, sequence (P40337 whole entry, looked up): as the sequence (P40337 whole entry, looked up) above

## Cc1cc(Cn2c(N3CC4(CNC4)C3)nc3c(N4CCN(CCCCCCCCC(=O)N[C@H](C(=O)N5C[C@H](O)C[C@H]5C(=O)N[C@@H](C)c5ccc(-c6scnc6C)cc5)C(C)(C)C)CC4)cc(Cl)cc32)cc(C)c1F
[1]
  Activity: Dde
[2]
  Activity: Active
[3]
  Activity: 56.2%
[4]
  Activity: 92.5%
[5]
  DC50: 98.4 nM
[6]
  Activity: Active
[7]
  Activity: Active
[8]
  Activity: Active
[9]
  Activity: Active
[10]
  pKd: 7.25
[11]
  Ratio: 15.1
[12]
  Activity: Active
[13]
  pIC50: 6.66
[14]
  pIC50: 6.51
[15]
  DC50: 98 nM
[16]
  DC50: 119 nM
[17]
  DC50: 104 nM
[18]
  DC50: 125 nM
[19]
  DC50: 22 nM
[20]
  DC50: 126 nM
[21]
  Activity: Non-Toxic
[22]
  Activity: Active
[23]
  Activity: Active
[24]
  Tmax: 0.25 h
[25]
  AUC(0-t) at 24 h: 3900 ng·h/mL
[26]
  MRT inf: 10.2 h
[27]
  Activity: Non-Toxic
[28]
  inhibition in vivo at 20 mg/kg/day: 86.1%
[29]
  Activity: Non-Toxic
[30]
  Activity: Active
